The values that follow are results of earlier work, collected in patent US12514832B2, “Methods for using low-dose colchicine after myocardial infarction” (INSTITUT DE CARDIOLOGIE DE MONTREAL, priority 2019, dated 2026).

The conditions of series [1]: CIRT; cited from earlier work.
Another series concerns the target interleukin-13 (Homo sapiens, UniProt P01584). Conditions: CANTOS; cited from earlier work.

Regarding `CN(Cc1cnc2nc(N)nc(N)c2n1)c1ccc(C(=O)N[C@@H](CCC(=O)O)C(=O)O)cc1` [methotrexate], the “effect on cardiovascular outcomes or plasma markers of inflammation (in words)” value in series [1] was “did not affect cardiovascular outcomes or plasma markers of inflammation”.
For the compound “canakinumab: injectable monoclonal antibody; anti-inflammatory studied in CANTOS”, in the series with interleukin-13, the “incidence of fatal infections versus placebo (in words)” value is “slightly higher incidence of fatal infections”.
